Values joined by “and” are separate entries in the source; they are usually repeats but may differ in a detail not shown here. Equal values may be shown once.
What was measured:
[1] = tested on: HeLa-CD4-βgal cells; test: XTT viability (cytotoxicity) assay, uninfected HeLa-CD4-βgal cells (Experiment 4); settings: 1 μM; 48 hours
[2] = tested on: HeLa-CD4-βgal cells; settings: human
[3] = tested on: HeLa-CD4-βgal cells; test: XTT viability (cytotoxicity) assay, uninfected HeLa-CD4-βgal cells (Experiment 5); settings: 10 μM
[4] = tested on: HEp-2 cells; test: XTT viability (cytotoxicity) assay, uninfected HEp-2 cells; settings: 1 μM; 72 hours

For `CC[C@H]1CN2CCc3cc(OC)c(OC)cc3[C@@H]2C[C@@H]1C[C@H]1NCCc2cc(OC)c(OC)cc21` [Emetine], the “Viability of HeLa-CD4-βgal cells in the XTT assay (percentage values), controls” value [1] was 10.0 ± 1.7%, the “inhibition by viability control in XTT cytotoxicity assays” value [2] was “greater than 85%” and the “inhibition of cell viability by cytotoxic compound control” value [2] was “greater than 90%”. The “Viability of Uninfected HeLa-CD4-β gal Cells (% vehicle alone), controls” value ([3]; 48 hours) was 5.6 ± 0.7 % vehicle alone, the “Viability (A490), controls, HeLa-CD4-βgal cells” value ([3]; raw absorbance 490 nm) was 0.213 and 0.203 and the “HEp-2 viability in the XTT assay (percentage values), controls” value [4] was 6.8 ± 1.1 % vehicle.

Reference: patent US20240124545A1, “COMPOSITIONS AND METHODS RELATING TO THE TREATMENT OF DISEASES” (ILC THERAPEUTICS LIMITED, priority 2021, published 2024)
